Data on two compounds can be found in paper PMC6013238, “Development of novel NEMO-binding domain mimetics for inhibiting IKK/NF-κB activation” (PLoS Biology, 2018).

A short description of data set [1]: Plasma and tissue concentrations 2 h after a single i.p. injection. The note with it: for concentration at 2 h: male, C57BL/6J, mouse, ip, 10 mg/kg. It is filed as in vivo, mouse. As for the experimental part: To determine the stability of the NBD mimetics in vivo, their levels were measured in the plasma of mice 2 h post i.p. injection with 10 mg/kg of each compound. The concentration of SR12460 was very high in plasma (>6.5 μg/mL; 20 μM), while levels in brain, muscle, spleen, and liver were lower. SR12343 and SR12454 had lower plasma concentrations, with SR12343 showing a higher level in liver and SR12454 showing higher concentrations in muscle and spleen. The level of SR11481 was undetectable in plasma and tissues (Fig 6A).
Fig 6 Newly identified NBD mimetics suppress LPS-induced acute inflammation in vivo. (A) The bioavailability property of SR12460, SR12343, SR12454, and SR11481. Concentrations of NBD mimetics were determined in plasma, brain, muscle, spleen, and liver 2 h post a single i.p. injection of 10 mg/kg of drugs; n = 3 per group. (B) Shown is the model to induce LPS-mediated acute inflammation and the treatment regimen with NBD mimetics. Mouse image via http://www.clker.com/clipart-mice-blank.html (copyright-free). (C) NBD mimetics suppressed LPS-induced acute inflammation in liver and lung by down-regulating NF-κB target gene expression. Vehicle, SR12343, SR12460, and 8K-NBD peptide were dosed at 10 mg/kg 30 min prior to the LPS treatment. Acute inflammation was induced by i.p. injection of 10 mg/kg LPS. Lung and liver were collected 2–4 h post injection, and mRNA was extracted for qRT-PCR analysis. (D, E) Western blot analysis was performed to probe for the expression of p-IκBα and COX-2 at protein level in liver and lung tissues. (F) Serum levels of IL-6 were determine by ELISA. n = 3–8 each group. *P < 0.05, **P < 0.01. Underlying data can be found in S1 Data. COX-2, cyclooxygenase 2; IL-6, interleukin 6; i.p., intraperitoneal; LPS, lipopolysaccharide; NBD, NEMO-binding domain; n.d., nondetectable; NEMO, NF-κB essential modulator; NF-κB, nuclear factor κB; qRT-PCR, quantitative real-time polymerase chain reaction. TEXT PRINTED IN THE PICTURE: (A) SR11481: Concentration (ng/ml): n.d. (plasma)
The pharmacokinetic profile of the NBD mimetics was determined in male C57BL/6J mice (n = 3). The drugs were formulated in 10:10:80 of DMSO:Tween 80:water and were dosed by i.p. injection at a final dose of 10 mg/kg. Blood, brain, muscle, spleen, and liver were collected 2 h post treatment and were analyzed by mass spectrometry by following a protocol previously described.

The test system of data set [2] is mdx mice. The experiment in a line: Chronic treatment of mdx mice, hematoxylin-eosin histology of TA muscle. It is filed as in vivo, mouse. The note with it: SR 30 mg/kg; for Percentage of area exhibiting necrosis or infiltration, TA muscle: Fig 7C, 8K-NBD 10 mg/kg i.p. 3 times/wk for 4 wk, single mice; for Muscle pathology of TA muscle (hematoxylin-eosin): 8K-NBD 10 mg/kg, 3 times/wk 4 wk. The text has this: Fig 7 NBD mimetics improve muscular pathology and grip strength in mdx mice. (A) Shown is the treatment regimen with NBD mimetics in mdx mice. (B) Hematoxylin–eosin staining of TA muscle from 7-wk-old, treated or untreated mdx mice. Images were taken at magnification of 20×. Representative images were shown for each treatment group. […] (E) TA muscle from 7-wk-old, treated or untreated mdx mice was stained with laminin by IHC to outline myofibers. Overall images of TA muscle were shown on the left side, and the inset panel images were shown on the right side. (F) Quantitation of minimum Feret diameter in centrally and noncentrally nucleated myofibers. (G) Forelimb force determined by grip strength test. Five-wk-old (2 wk post treatment) and 7-wk-old (4 wk post treatment) mdx mice, treated or untreated, were tested for forelimb grip strength. Five sequential tests were performed, and the force was normalized to body weight. Data were shown as mean +/− SEM. Dosages used are as follows: SR12343 (30 mg/kg), SR12460 (30 mg/kg), and 8K-NBD peptide (10 mg/kg). n = 6–7 each group. *P < 0.05, **P < 0.01. Underlying data can be found in S1 Data. eMyHC, embryonic myosin heavy chain; IHC, immunohistochemistry; NBD, NEMO-binding domain; NEMO, NF-κB essential modulator; Pax7, paired box protein 7; qRT-PCR, quantitative real-time polymerase chain reaction; TA, tibialis anterior.
To determine whether SR12343 and SR12460 improve muscle pathology, TA muscle was stained with hematoxylin–eosin to assess inflammatory infiltration, necrosis, central nucleation, and fibrosis. […] In addition, Masson trichrome stain was conducted to further measure muscle fibrosis. Chronic treatment with SR12343 reduced muscle fibrosis (blue) in diaphragm and TA muscle tissues in comparison to control group (Fig 8A & 8B). To further quantitate the extent of inflammation in mdx muscle tissues, diaphragm and TA muscle were immunostained for cluster of differentiation 68 (CD68), a macrophage marker. Treatment with SR12343 reduced the number of CD68^+ cells by almost 50% per myofiber in both diaphragm and TA tissues (Fig 8A & 8B). […] To quantify the average fiber size in an unbiased way, TA muscle was stained with laminin to outline myofibers, and Feret diameter of all myocytes was quantitated in a whole muscle section.
HEK293 cells and MEFs were grown in Dulbecco’s Modified Eagle Medium (with 4.5 g/L glucose and L-glutamine), supplemented with 10% fetal bovine serum, penicillin, and streptomycin. […]
Supplementary file pbio.2004663.s005.tif: S4 Fig Chronic treatment with NBD mimetics improves muscle pathology by inhibiting NF-κB DNA binding activity in mdx mice. (A) Quantification of percentage of centralized myonuclei. […]

Setting [3] is: 2 h post single i.p. 10 mg/kg, single mice.
[4] abbreviates: plasma, 2 h post single i.p. 10 mg/kg, single mice, read-out: Concentration in plasma.
Where [5] appears, read: spleen, 2 h post single i.p. 10 mg/kg, single mice, read-out: Concentration in spleen.

Several values for one entry are separate records, joined by “and”; a condition that tells them apart may be missing. Identical values can stand only once. Like-named read-outs stand apart in the source and are kept apart here.

As to `O=C(CNc1ccc(Cl)cn1)NCCc1cccc(Br)c1` [SR12343], in data set [1] (setting [3]), the Concentration in brain is 0.0457 µg/mL and 0.0292 µg/mL; the Concentration in plasma was 0.0147 µg/mL and 0.0084 µg/mL; the Concentration in spleen is 0.0266 µg/mL and 0.0251 µg/mL. For the same compound, the concentration at 2 h in data set [1] (brain, 2 h post single i.p. 10 mg/kg, single mice, read-out: Concentration in brain) turned out to be 0.0318 µg/mL. For the same compound, the concentration at 2 h in data set [1] (setting [4]) came to 0.0143 µg/mL. Also, in data set [1] (setting [5]), the concentration at 2 h amounted to 0.0247 µg/mL. Further, in data set [2], the “Percentage of area exhibiting necrosis or infiltration, TA muscle” value is 2% and 3% and 0% and 1%; the “Muscle pathology of TA muscle (hematoxylin-eosin)” value is listed as “most significant pathological improvement”.

Regarding `O=C(CNCCc1cc(F)cc(F)c1)Nc1ccc(Cl)cn1` [SR12460], in data set [1] (setting [3]), the Concentration in liver is 0.265 µg/mL and 0.39 µg/mL; the Concentration in muscle was 0.602 µg/mL and 0.852 µg/mL; the Concentration in plasma is 5.47 µg/mL and 7.97 µg/mL; the Concentration in spleen is 0.905 µg/mL and 1.25 µg/mL. Further, in data set [1] (liver, 2 h post single i.p. 10 mg/kg, single mice, read-out: Concentration in liver), the concentration at 2 h came out at 0.442 µg/mL. For the same compound, in data set [1] (muscle, 2 h post single i.p. 10 mg/kg, single mice, read-out: Concentration in muscle), the concentration at 2 h turned out to be 0.846 µg/mL. In data set [1] (plasma, 2 h post i.p. 10 mg/kg, read-out: Concentration in plasma), the concentration at 2 h was > 6500 ng/mL and 20 µM. Besides, in data set [1] (setting [4]), the concentration at 2 h worked out at 6.52 µg/mL. The concentration at 2 h in data set [1] (setting [5]) worked out at 0.93 µg/mL. In data set [2], the “Percentage of area exhibiting necrosis or infiltration, TA muscle” value is 3% and 6%; the “Muscle pathology of TA muscle (hematoxylin-eosin)” value is reported as “improved muscle pathology, although not as effectively as SR12343”.
